Reference: ChEMBL document CHEMBL5055626 (J Med Chem, 2021)
Calls of active or inactive are those of the source. The rule behind the calls is not given here. Where a SMILES comes first, the peptide text is derived from it. Bridges are numbered along the chain shown (N, C = ends).

What was measured:
[1] = biological target: Neuronal acetylcholine receptor; alpha2/beta4 (Rattus norvegicus, UniProt P12389+P12392); experiment: Antagonist activity at rat alpha2beta4 nAChR expressed in xenopus oocytes assessed as inhibition of Ach- induced response at -70 mV holding potential preincubated for 5 mins followed by Ach stimulation by voltage-clamp based electrophysiological method; assay type: cell-based, Oocyte
[2] = biological target: Neuronal acetylcholine receptor; alpha4/beta4 (Rattus norvegicus, UniProt P09483+P12392); experiment: Antagonist activity at rat alpha4beta4 nAChR expressed in xenopus oocytes assessed as inhibition of Ach- induced response at -70 mV holding potential preincubated for 5 mins followed by Ach stimulation by voltage-clamp based electrophysiological method; assay type: cell-based, Oocyte
[3] = Antagonist activity at human nAChR alpha7 H141Q mutant expressed in xenopus oocytes assessed as inhibition of Ach- induced response at -70 mV holding potential preincubated for 5 mins followed by Ach stimulation by voltage-clamp based electrophysiological method; assay type: cell-based; conditions: Oocyte
[4] = biological target: Neuronal acetylcholine receptor; alpha3/beta4 (Rattus norvegicus, UniProt P04757+P12392); experiment: Antagonist activity at rat alpha3beta4 nAChR expressed in xenopus oocytes assessed as inhibition of Ach- induced response at -70 mV holding potential preincubated for 5 mins followed by Ach stimulation by voltage-clamp based electrophysiological method; assay type: cell-based, Oocyte
[5] = Antagonist activity at rat nAChR alpha7 N184S mutant expressed in xenopus oocytes assessed as inhibition of Ach- induced response at -70 mV holding potential preincubated for 5 mins followed by Ach stimulation by voltage-clamp based electrophysiological method; assay type: cell-based; conditions: Oocyte
[6] = Antagonist activity at rat nAChR alpha7 K186R mutant expressed in xenopus oocytes assessed as inhibition of Ach- induced response at -70 mV holding potential preincubated for 5 mins followed by Ach stimulation by voltage-clamp based electrophysiological method; assay type: cell-based; conditions: Oocyte
[7] = biological target: Nicotinic acetylcholine receptor alpha6/alpha3/beta4 (Homo sapiens, UniProt P30926+P32297+Q15825); experiment: Antagonist activity at rat alpha6/alpha3beta4 nAChR expressed in xenopus oocytes assessed as inhibition of Ach- induced response at -70 mV holding potential preincubated for 5 mins followed by Ach stimulation by voltage-clamp based electrophysiological method; assay type: cell-based, Oocyte
[8] = Antagonist activity at rat nAChR alpha7 M69V mutant expressed in xenopus oocytes assessed as inhibition of Ach- induced response at -70 mV holding potential preincubated for 5 mins followed by Ach stimulation by voltage-clamp based electrophysiological method; assay type: cell-based; conditions: Oocyte
[9] = Antagonist activity at rat nAChR alpha7 N77T mutant expressed in xenopus oocytes assessed as inhibition of Ach- induced response at -70 mV holding potential preincubated for 5 mins followed by Ach stimulation by voltage-clamp based electrophysiological method; assay type: cell-based; conditions: Oocyte
[10] = biological target: Neuronal acetylcholine receptor; alpha3/beta2 (Rattus norvegicus, UniProt P04757+P12390); experiment: Antagonist activity at rat alpha3beta2 nAChR expressed in xenopus oocytes assessed as inhibition of Ach- induced response at -70 mV holding potential preincubated for 5 mins followed by Ach stimulation by voltage-clamp based electrophysiological method; assay type: cell-based, Oocyte
[11] = biological target: Neuronal acetylcholine receptor; alpha3/beta4 (Rattus norvegicus) (UniProt P04757+P12392); experiment: Antagonist activity at rat alpha3beta4 nAChR expressed in xenopus oocytes assessed as inhibition of Ach- induced response at 10 uM at -70 mV holding potential preincubated for 5 mins followed by Ach stimulation by voltage-clamp based electrophysiological method; assay type: cell-based; conditions: Oocyte
[12] = Antagonist activity at human nAChR alpha7 S184N mutant expressed in xenopus oocytes assessed as inhibition of Ach- induced response at -70 mV holding potential preincubated for 5 mins followed by Ach stimulation by voltage-clamp based electrophysiological method; assay type: cell-based; conditions: Oocyte
[13] = biological target: Neuronal acetylcholine receptor subunit alpha-7 (Homo sapiens, UniProt P36544); assay type: cell-based, Oocyte
[14] = biological target: Neuronal acetylcholine receptor; alpha4/beta2 (Rattus norvegicus, UniProt P09483+P12390); experiment: Antagonist activity at rat alpha4beta2 nAChR expressed in xenopus oocytes assessed as inhibition of Ach- induced response at -70 mV holding potential preincubated for 5 mins followed by Ach stimulation by voltage-clamp based electrophysiological method; assay type: cell-based, Oocyte
[15] = Antagonist activity at human nAChR alpha7 R186K mutant expressed in xenopus oocytes assessed as inhibition of Ach- induced response at -70 mV holding potential preincubated for 5 mins followed by Ach stimulation by voltage-clamp based electrophysiological method; assay type: cell-based; conditions: Oocyte
[16] = Antagonist activity at rat nAChR alpha7 S167G mutant expressed in xenopus oocytes assessed as inhibition of Ach- induced response at -70 mV holding potential preincubated for 5 mins followed by Ach stimulation by voltage-clamp based electrophysiological method; assay type: cell-based; conditions: Oocyte
[17] = biological target: Neuronal acetylcholine receptor; alpha4/beta4 (Rattus norvegicus) (UniProt P09483+P12392); experiment: Antagonist activity at rat alpha4beta4 nAChR expressed in xenopus oocytes assessed as inhibition of Ach- induced response at 10 uM at -70 mV holding potential preincubated for 5 mins followed by Ach stimulation by voltage-clamp based electrophysiological method; assay type: cell-based; conditions: Oocyte
[18] = biological target: Neuronal acetylcholine receptor; alpha2/beta2 (Rattus norvegicus) (UniProt P12389+P12390); experiment: Antagonist activity at rat alpha2beta2 nAChR expressed in xenopus oocytes assessed as inhibition of Ach- induced response at 10 uM at -70 mV holding potential preincubated for 5 mins followed by Ach stimulation by voltage-clamp based electrophysiological method; assay type: cell-based; conditions: Oocyte
[19] = biological target: Neuronal acetylcholine receptor; alpha2/beta2 (Rattus norvegicus, UniProt P12389+P12390); experiment: Antagonist activity at rat alpha2beta2 nAChR expressed in xenopus oocytes assessed as inhibition of Ach- induced response at -70 mV holding potential preincubated for 5 mins followed by Ach stimulation by voltage-clamp based electrophysiological method; assay type: cell-based, Oocyte
[20] = biological target: Neuronal acetylcholine receptor; alpha2/beta4 (Rattus norvegicus) (UniProt P12389+P12392); experiment: Antagonist activity at rat alpha2beta4 nAChR expressed in xenopus oocytes assessed as inhibition of Ach- induced response at 10 uM at -70 mV holding potential preincubated for 5 mins followed by Ach stimulation by voltage-clamp based electrophysiological method; assay type: cell-based; conditions: Oocyte
[21] = biological target: Nicotinic acetylcholine receptor alpha9/alpha10 (Rattus norvegicus, UniProt P43144+Q9JLB5); experiment: Antagonist activity at rat alpha9alpha10 nAChR expressed in xenopus oocytes assessed as inhibition of Ach- induced response at -70 mV holding potential preincubated for 5 mins followed by Ach stimulation by voltage-clamp based electrophysiological method; assay type: cell-based, Oocyte
[22] = Antagonist activity at rat nAChR alpha7 A112S mutant expressed in xenopus oocytes assessed as inhibition of Ach- induced response at -70 mV holding potential preincubated for 5 mins followed by Ach stimulation by voltage-clamp based electrophysiological method; assay type: cell-based; conditions: Oocyte
[23] = biological target: Neuronal acetylcholine receptor; alpha4/beta2 (Rattus norvegicus) (UniProt P09483+P12390); experiment: Antagonist activity at rat alpha4beta2 nAChR expressed in xenopus oocytes assessed as inhibition of Ach- induced response at 10 uM at -70 mV holding potential preincubated for 5 mins followed by Ach stimulation by voltage-clamp based electrophysiological method; assay type: cell-based; conditions: Oocyte

Sequence of Neuronal acetylcholine receptor; alpha4/beta2 (P09483 whole entry): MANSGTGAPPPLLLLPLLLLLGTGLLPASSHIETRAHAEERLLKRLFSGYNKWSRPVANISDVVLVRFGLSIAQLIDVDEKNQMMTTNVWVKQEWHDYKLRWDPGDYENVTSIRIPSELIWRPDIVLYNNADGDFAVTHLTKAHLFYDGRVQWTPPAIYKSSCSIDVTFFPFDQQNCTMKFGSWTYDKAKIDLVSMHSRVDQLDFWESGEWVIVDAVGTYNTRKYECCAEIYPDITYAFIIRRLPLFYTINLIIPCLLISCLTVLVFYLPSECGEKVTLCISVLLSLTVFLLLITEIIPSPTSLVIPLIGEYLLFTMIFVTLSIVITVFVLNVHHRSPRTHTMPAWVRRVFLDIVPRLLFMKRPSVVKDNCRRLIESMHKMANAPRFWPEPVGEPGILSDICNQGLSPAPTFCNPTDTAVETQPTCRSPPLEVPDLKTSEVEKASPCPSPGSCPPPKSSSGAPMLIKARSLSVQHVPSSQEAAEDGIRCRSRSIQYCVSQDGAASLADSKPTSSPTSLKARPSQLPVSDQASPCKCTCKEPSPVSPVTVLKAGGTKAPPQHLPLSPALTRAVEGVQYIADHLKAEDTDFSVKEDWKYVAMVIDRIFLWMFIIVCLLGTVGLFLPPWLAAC
Sequence of Neuronal acetylcholine receptor; alpha4/beta2 (P12390 whole entry): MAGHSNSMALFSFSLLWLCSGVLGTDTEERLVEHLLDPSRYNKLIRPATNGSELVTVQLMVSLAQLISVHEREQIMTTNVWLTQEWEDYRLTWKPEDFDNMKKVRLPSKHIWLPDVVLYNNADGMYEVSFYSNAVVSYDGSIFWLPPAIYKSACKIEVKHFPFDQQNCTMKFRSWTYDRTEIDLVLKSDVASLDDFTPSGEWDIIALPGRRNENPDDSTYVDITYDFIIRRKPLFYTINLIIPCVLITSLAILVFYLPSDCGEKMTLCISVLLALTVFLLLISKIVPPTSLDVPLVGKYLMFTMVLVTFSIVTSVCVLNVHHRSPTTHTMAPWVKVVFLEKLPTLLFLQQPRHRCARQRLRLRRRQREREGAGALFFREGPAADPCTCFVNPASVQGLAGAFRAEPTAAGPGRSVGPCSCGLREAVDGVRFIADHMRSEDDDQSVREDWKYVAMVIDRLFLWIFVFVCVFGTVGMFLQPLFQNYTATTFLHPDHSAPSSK
Sequence of Neuronal acetylcholine receptor; alpha4/beta4 (P09483 whole entry): as the sequence (P09483 whole entry) above
Sequence of Neuronal acetylcholine receptor; alpha4/beta4 (P12392 whole entry): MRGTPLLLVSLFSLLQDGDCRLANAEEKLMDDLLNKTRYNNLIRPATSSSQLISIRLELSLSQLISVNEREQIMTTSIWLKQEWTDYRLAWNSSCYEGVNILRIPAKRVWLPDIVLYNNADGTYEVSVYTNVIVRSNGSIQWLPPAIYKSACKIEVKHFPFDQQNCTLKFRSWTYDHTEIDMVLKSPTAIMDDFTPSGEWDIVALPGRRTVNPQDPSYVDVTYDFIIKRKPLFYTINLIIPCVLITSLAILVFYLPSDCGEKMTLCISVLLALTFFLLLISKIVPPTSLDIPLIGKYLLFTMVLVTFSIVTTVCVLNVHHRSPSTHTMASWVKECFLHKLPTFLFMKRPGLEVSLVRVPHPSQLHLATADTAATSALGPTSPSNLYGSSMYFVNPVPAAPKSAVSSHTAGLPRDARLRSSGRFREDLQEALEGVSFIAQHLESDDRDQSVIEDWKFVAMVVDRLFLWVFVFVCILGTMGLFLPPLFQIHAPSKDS
Sequence of Neuronal acetylcholine receptor; alpha3/beta4 (P04757 whole entry): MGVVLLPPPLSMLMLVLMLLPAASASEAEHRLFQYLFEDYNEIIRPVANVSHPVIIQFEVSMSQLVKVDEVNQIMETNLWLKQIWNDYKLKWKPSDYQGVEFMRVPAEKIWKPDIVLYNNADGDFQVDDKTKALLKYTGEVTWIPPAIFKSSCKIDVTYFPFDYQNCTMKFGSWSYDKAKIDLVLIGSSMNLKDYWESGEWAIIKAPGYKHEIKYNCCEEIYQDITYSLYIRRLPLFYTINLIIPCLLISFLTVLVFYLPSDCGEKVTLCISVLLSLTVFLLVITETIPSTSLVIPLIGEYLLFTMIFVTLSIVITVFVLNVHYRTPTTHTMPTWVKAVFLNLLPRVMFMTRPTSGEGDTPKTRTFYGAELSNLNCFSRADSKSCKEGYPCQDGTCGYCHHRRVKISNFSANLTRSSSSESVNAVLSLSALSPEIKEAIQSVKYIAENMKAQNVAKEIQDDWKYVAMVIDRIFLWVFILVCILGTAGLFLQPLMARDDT
Sequence of Neuronal acetylcholine receptor; alpha3/beta4 (P12392 whole entry): as the sequence (P12392 whole entry) above
Sequence of Neuronal acetylcholine receptor; alpha3/beta2 (P04757 whole entry): as the sequence (P04757 whole entry) above
Sequence of Neuronal acetylcholine receptor; alpha3/beta2 (P12390 whole entry): as the sequence (P12390 whole entry) above
Sequence of Neuronal acetylcholine receptor subunit alpha-7 (P36544 whole entry): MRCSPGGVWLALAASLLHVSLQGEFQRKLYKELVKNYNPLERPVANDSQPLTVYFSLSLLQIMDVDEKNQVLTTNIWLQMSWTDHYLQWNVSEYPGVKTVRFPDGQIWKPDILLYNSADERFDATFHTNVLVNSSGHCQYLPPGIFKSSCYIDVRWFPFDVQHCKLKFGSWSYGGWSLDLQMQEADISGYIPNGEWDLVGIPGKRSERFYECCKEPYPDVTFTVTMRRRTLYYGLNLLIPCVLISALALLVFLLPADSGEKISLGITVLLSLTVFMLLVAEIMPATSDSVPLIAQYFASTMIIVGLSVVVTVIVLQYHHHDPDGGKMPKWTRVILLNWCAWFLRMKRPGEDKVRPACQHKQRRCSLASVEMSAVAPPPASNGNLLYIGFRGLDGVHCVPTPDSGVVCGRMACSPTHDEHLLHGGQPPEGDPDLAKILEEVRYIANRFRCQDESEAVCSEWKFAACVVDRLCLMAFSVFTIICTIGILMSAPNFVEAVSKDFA

**Q.** With `C[C@@H]1NC(=O)[C@@H]2CSSC[C@H](NC(=O)CN)C(=O)N[C@@H](CSSC[C@@H](C(N)=O)NC(=O)[C@H](Cc3cnc[nH]3)NC(=O)[C@H](CCC(=O)O)NC(=O)[C@H](Cc3cnc[nH]3)NC1=O)C(=O)N[C@@H](CO)C(=O)N[C@@H](CC(N)=O)C(=O)N1CCC[C@H]1C(=O)N1CCC[C@H]1C(=O)N2` (H-GCCSNPPCAHEHC-NH2; disulfide 2-8, 3-13) as the compound, how does the IC50 [1] read?
**A.** > 10000 nM

**Q.** What about the IC50 [2] of the same compound?
**A.** > 10000 nM

**Q.** And the IC50 [3]?
**A.** 1070 nM

**Q.** What about the IC50 [4] of the same compound?
**A.** > 10000 nM

**Q.** And the IC50 [5]?
**A.** 710 nM

**Q.** What about the IC50 [6] of the same compound?
**A.** 430 nM

**Q.** And the IC50 [7]?
**A.** 1410 nM

**Q.** And the IC50 [8]?
**A.** 130 nM

**Q.** What about the IC50 [9] of the same compound?
**A.** 160 nM

**Q.** What about the IC50 [10] of the same compound?
**A.** 350 nM

**Q.** What about the inhibition [11] of the same compound?
**A.** inactive

**Q.** And the IC50 [12]?
**A.** 850 nM

**Q.** And the IC50 [13]?
**A.** 1570 nM

**Q.** What about the IC50 [14] of the same compound?
**A.** > 10000 nM

**Q.** What about the IC50 [15] of the same compound?
**A.** 1130 nM

**Q.** And the IC50 [16]?
**A.** 200 nM

**Q.** What about the inhibition [17] of the same compound?
**A.** inactive

**Q.** And the inhibition [18]?
**A.** inactive

**Q.** What about the IC50 [19] of the same compound?
**A.** > 10000 nM

**Q.** What about the inhibition [20] of the same compound?
**A.** inactive

**Q.** What about the IC50 [21] of the same compound?
**A.** > 10000 nM

**Q.** What about the IC50 [22] of the same compound?
**A.** 160 nM

**Q.** What about the inhibition [23] of the same compound?
**A.** inactive
